Measured values reported in publication PMC12363342, “Investigating the N-terminal linker histone H1 subtypes as substrates for JmjC lysine demethylases” (RSC Chemical Biology, 2025).
Square brackets hold non-standard residues; d marks the D form. Ends that are not written are not given here. Lys(Me2) = CN(C)CCCC[C@H](N)C(=O)O

Assays:
KDM3A = assay: LC-MS demethylation activity assay, KDM3A; type: biochemical, human; conditions: 2 μM KDM, 10 μM H1/H3 peptide, 10 μM FAS, 100 μM LAA, 20 μM 2OG, 50 mM HEPES pH 7.5, 2 h, room temperature; for KDM3A demethylation activity, M: M (mono-) initial methylation state
Experimental: (§1) The substrate specificity of JmjC KDMs for H1 was examined using liquid chromatography coupled to mass spectrometry (LC-MS) assays. The H1 peptides (10 μM) were incubated with the recombinant KDM (2 μM) in HEPES buffer at pH 7.5 at room temperature for 2 h, in the presence of ferrous(II) ammonium sulfate (FAS, 10 μM), sodium ascorbate (LAA, 100 μM) and 2OG (20 μM), and then quenched with formic acid. N^ε-Methylated H3K9 and H3K36 peptides were used as positive controls (Fig. 3–5 and Fig. S2–S6).[26]
(§2) The catalytic domains of the JmjC KDMs used were recombinantly produced as reported in either Escherichia coli (KDM4AM1-L359,[38] KDM4DM1-L359,[39] KDM4EM1-R336,[30] KDM6BD1141–E1590[40] and KDM3CL2157-L2500) or Sf9 cells (KDM3AT515–S1317, KDM3B882–1761, and KDM5DM1-D775) as N-terminally His6-tagged proteins. […] To produce proteins, DNA sequences encoding for KDM3A, KDM3B and KDM5D were inserted into the pFB-LIC vector, containing a TEV-protease cleavable N-terminal 6x-histidine tag via ligation independent cloning (LIC). The resultant plasmids were transformed into baculovirus and Sf9 cells ([…]) which were infected with the virus stock. The cells were grown at 27 °C and 90 rpm for 70 h. Cells were then harvested and suspended in 100 mL of lysis buffer (50 mM HEPES-NaOH, pH 7.4, 500 mM NaCl, 20 mM imidazole, 0.5 mM Tris (2-carboxyethyl)phosphine (TCEP), 5% (v/v) glycerol). […] The supernatant was loaded onto a Ni-NTA gravity column, washed with 10 column volume of lysis buffer and eluted using the elution buffer (50 mM HEPES-NaOH, pH 7.4, 500 mM NaCl, 300 mM imidazole, 0.5 mM TCEP, 5% (v/v) glycerol). The eluted protein was further purified using S200 gel filtration column chromatography (50 mM HEPES-NaOH, pH 7.4, 150 mM NaCl, 0.5 mM TCEP and 5% glycerol). Protein purity was analysed by SDS-PAGE and further confirmed by mass spectrometry. Selected fractions were pooled, concentrated and stored at −80 °C.
(§3) All reagents were purchased from Sigma Aldrich and were of the highest grade available. Ferrous(II) ammonium sulfate (FAS) solutions were prepared freshly by dissolving FAS to 400 mM in 20 mM HCl with subsequent dilution to 1 mM using deionized water. Fresh 2OG (10 mM) and LAA (50 mM) solutions were prepared by dissolving the solids in deionised water. All enzyme reactions were performed in 384-well plates (Greiner Bio-One) with a final reaction volume of 50 μL. Substrate mixtures contained 50 mM HEPES pH 7.5, LAA (100 μM), FAS (10 μM), 2OG (20 μM) and an H1 isoform peptide (10 μM). Reactions were initiated by the addition of enzyme to a final concentration of 2.0 μM. After 2 h, the reactions were stopped by the addition of 5 μL of 10% (v/v) LC-MS grade formic acid (Fisher Scientific) to a final concentration of 1% (v/v). Product analyses were performed by liquid chromatography-mass spectrometry (LC-MS) using an Agilent 1290 infinity II LC system equipped with an Agilent 1290 multisampler and an Agilent 1290 high speed pump and connected to an Agilent 6550 accurate mass iFunnel quadrupole time of flight (Q-TOF) mass spectrometer. 1 μL of the reaction mixture was injected onto a 1.8 μm × 2.1 × 50 mm ZORBAX RRHD Eclipse Plus C18 column (Agilent). Solvent A consisted of HPLC grade water containing 0.1% (v/v) formic acid and solvent B consisted of MeCN containing 0.1% (v/v) formic acid. Peptides were separated using a stepwise gradient (0 min – 95% solvent A, 1.0 min – 80% solvent A, 3.0 min – 45% solvent A, 4.0 min – 45% solvent A, 5.0 min – 0% solvent A, 6.0 min – 0% solvent A, 7.0 min – 95% solvent A). This was followed by a 3 min post-run with 95% solvent A to re-equilibrate the column. All flow rates were 0.2 mL min^−1. A blank injection of HPLC grade water was carried out between each sample injection.

KDM3B = assay: LC-MS demethylation activity assay, KDM3B; type: biochemical, human; conditions: 2 μM KDM, 10 μM H1/H3 peptide, 10 μM FAS, 100 μM LAA, 20 μM 2OG, 50 mM HEPES pH 7.5, 2 h, room temperature; for KDM3B demethylation activity, M: M (mono-) initial methylation state
Experimental: as §1, §2, §3

KDM3C = assay: LC-MS demethylation activity assay, KDM3C; type: biochemical, human; conditions: 2 μM KDM, 10 μM H1/H3 peptide, 10 μM FAS, 100 μM LAA, 20 μM 2OG, 50 mM HEPES pH 7.5, 2 h, room temperature; for KDM3C demethylation activity, M: M (mono-) initial methylation state
Experimental: as §1, §2, §3

KDM4A = assay: LC-MS demethylation activity assay, KDM4A; type: biochemical, human; conditions: 10 μM FAS, 100 μM LAA, 20 μM 2OG, room temperature; for KDM4A demethylation activity, M: M (mono-) initial methylation state
Experimental: as §1, §2, §3

KDM4D = target: T1, KDM4D (Homo sapiens, UniProt Q6B0I6); assay: LC-MS demethylation activity assay, KDM4D; type: biochemical; conditions: room temperature; for KDM4D demethylation activity, M: M (mono-) initial methylation state
T1 construct: KDM4AM1-L359,[38]; KDM4DM1-L359,[39]; KDM4EM1-R336,[30]; His6 (N); made in house; host or cells: Escherichia coli
T1 sequence (Q6B0I6 1-359): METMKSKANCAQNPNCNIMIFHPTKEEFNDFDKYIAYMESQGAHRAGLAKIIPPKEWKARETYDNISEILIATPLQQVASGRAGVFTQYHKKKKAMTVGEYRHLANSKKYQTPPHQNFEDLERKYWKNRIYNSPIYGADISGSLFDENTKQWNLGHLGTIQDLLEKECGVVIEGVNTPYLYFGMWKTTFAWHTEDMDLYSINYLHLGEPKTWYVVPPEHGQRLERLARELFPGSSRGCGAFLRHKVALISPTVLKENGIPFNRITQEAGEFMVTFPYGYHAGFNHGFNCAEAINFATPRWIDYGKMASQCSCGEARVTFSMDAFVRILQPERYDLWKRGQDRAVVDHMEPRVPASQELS
Experimental: as §1, §2, §3

KDM4E = target: T2, KDM4E (Homo sapiens, UniProt B2RXH2); assay: LC-MS demethylation activity assay, KDM4E; type: biochemical; conditions: room temperature; for KDM4E demethylation activity, M: M (mono-) initial methylation state
T2 construct: KDM4DM1-L359,[39]; KDM4EM1-R336,[30]; His6 (N); made in house; host or cells: Escherichia coli
T2 sequence (B2RXH2 1-336): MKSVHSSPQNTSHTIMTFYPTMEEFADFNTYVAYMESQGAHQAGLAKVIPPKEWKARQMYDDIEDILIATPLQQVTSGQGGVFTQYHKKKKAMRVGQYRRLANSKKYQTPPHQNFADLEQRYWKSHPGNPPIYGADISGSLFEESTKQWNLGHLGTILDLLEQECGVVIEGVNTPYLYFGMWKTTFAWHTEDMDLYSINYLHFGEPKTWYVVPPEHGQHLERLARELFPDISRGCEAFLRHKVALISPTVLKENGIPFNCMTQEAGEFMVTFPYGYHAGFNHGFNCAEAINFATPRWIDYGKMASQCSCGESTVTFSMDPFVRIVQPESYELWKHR
Experimental: as §1, §2, §3

KDM5D = assay: LC-MS demethylation activity assay, KDM5D; type: biochemical, human; conditions: 2 μM KDM, 10 μM H1/H3 peptide, 10 μM FAS, 100 μM LAA, 20 μM 2OG, 50 mM HEPES pH 7.5, 2 h, room temperature; for KDM5D demethylation activity, M: M (mono-) initial methylation state
Experimental: as §1, §2, §3

KDM6B = assay: LC-MS demethylation activity assay, KDM6B; type: biochemical, human; conditions: 2 μM KDM, 10 μM H1/H3 peptide, 10 μM FAS, 100 μM LAA, 20 μM 2OG, 50 mM HEPES pH 7.5, 2 h, room temperature; for KDM6B demethylation activity, M: M (mono-) initial methylation state
Experimental: as §1, §2, §3

[1] = D (di-) initial methylation state
[2] = 2 μM KDM4D, 10 μM peptide, standard conditions, 2 h
[3] = 2 μM KDM, 10 μM H1/H3 peptide, 10 μM FAS, 100 μM LAA, 20 μM 2OG, 50 mM HEPES pH 7.5, 2 h, D (di-) initial methylation state
[4] = 2 μM KDM, 10 μM H1/H3 peptide, 50 mM HEPES pH 7.5, 2 h
[5] = 2 μM KDM, 10 μM H1/H3 peptide, 10 μM FAS, 100 μM LAA, 20 μM 2OG, 50 mM HEPES pH 7.5, 2 h

mono-methylated product formed by KDM4D (KDM4D; [2]) [%] | non-methylated product formed by KDM4D (KDM4D; [2]) [%] | unmethylated lysine product formed by KDM4E (KDM4E; 2 μM KDM4E, 10 μM peptide, standard conditions, 2 h) [%] | KDM4D demethylation activity, M (KDM4D; [5]) | KDM4E demethylation activity, M (KDM4E; [5]) | Substance | KDM3A demethylation activity, D (KDM3A; [1]) | KDM3B demethylation activity, D (KDM3B; [1]) | KDM3C demethylation activity, D (KDM3C; [1]) | substrate conversion (demethylation) by KDM4A (KDM4A; 2 μM KDM4A, 10 μM peptide, HEPES pH 7.5, 2 h) [%] | KDM4A demethylation activity, D (KDM4A; 2 μM KDM, 10 μM H1/H3 peptide, 50 mM HEPES pH 7.5, 2 h, D (di-) initial methylation state) | KDM4D demethylation activity, D (KDM4D; [3]) | KDM4E demethylation activity, D (KDM4E; [3]) | KDM5D demethylation activity, D (KDM5D; [1]) | KDM6B demethylation activity, D (KDM6B; [1]) | KDM3A demethylation activity, M (KDM3A) | KDM3B demethylation activity, M (KDM3B) | KDM3C demethylation activity, M (KDM3C) | KDM4A demethylation activity, M (KDM4A; [4]) | KDM5D demethylation activity, M (KDM5D) | KDM6B demethylation activity, M (KDM6B)
~53 | ~8 | ~60 | – | – | KKKA[Lys(Me2)]KAGATAGKRK [Peptide H1.3K24me2, 15-mer linker histone H1.3 residues 20-34 peptide, di-methylated K24] | ● [red] | ● [red] | ● [red] | ~23 | ● [yellow] (yellow dots indicate moderate demethylation (<50% conversion)) | ● [green] (green dots indicate good demethylation (>50% conversion)) | ● [green] (green dots indicate good demethylation (>50% conversion)) | ● [red] | ● [red] | – | – | – | – | – | –
– | – | – | ● [red] | ● [red] | SAPATGGVKmeKPHRYRPGTVAL [Peptide H3K36me, histone H3 residues 28-48 peptide with mono-methylated K36; control, reference compound] | – | – | – | – | – | – | – | – | – | ● [red] | ● [red] | ● [red] | ● [red] | ● [red] | ● [red]
– | – | – | ● [red] | ● [red] | KKKAAKmeKAGGTPRKA [Peptide H1.2K25me, 15-mer linker histone H1.2 residues 20-34 peptide, mono-methylated K25] | – | – | – | – | – | – | – | – | – | ● [red] | ● [red] | ● [red] | ● [red] | ● [red] | ● [red]
